# Where “and” joins values, the source holds several entries; their conditions need not be identical. Identical values can stand only once. Like-named read-outs stand apart in the source and are kept apart here.
# What was measured:
# MDR1 = assay: MDCKII-MDR1 permeability assay; details: dog, MDCKII-MDR1, assay conc. 10
# [1] = MDCKII-MDR1 permeability assay; details: dog, MDCK-MDR1, Papp A->B, MDCKII-MDR1; assay conc. 10; apical to basolateral
# MDA-MB-175VII = assay: CellTiter-Glo (CTG) EC50, MDA-MB-175VII breast cancer control cell line; type: cell-based, human
# Procedure: (§1) Cell line authenticity was confirmed by STR analysis at Eurofins Genomics. All cell lines were tested regularly for mycoplasma contamination using the Mycoplasmacheck Service at Eurofins Genomics. […] Following incubation for 24 h in a humidified atmosphere at 37 °C and 5% CO2, cells were treated with inhibitors in serial dilutions ranging from 30 µM down to 0.1 nM using an Echo650 acoustic liquid handler (Beckman Coulter). Cell viability was analyzed on day 5 using the CellTiter-Glo® assay (Promega) using 500 ms integration time. The obtained data were normalized to the plate positive control (30 µM staurosporine) and negative control (DMSO) and subsequently analyzed and fitted with the Quattro Software Suite (Quattro Research) using a four-parameter logistic model. As quality control, the Z’-factor was calculated from 16 positive and negative control values. Only assay results showing a Z’-factor ≥0.5 were used for further analysis. All experimental points were measured in duplicates for each plate and were independently replicated in at least three plates.
# GIST-T1 = assay: CellTiter-Glo (CTG) GR50, GIST-T1; details: Homo sapiens
# T1-a-5258 = assay: CellTiter-Glo (CTG) GR50, T1-a-5258; details: Homo sapiens
# T1-T670I = assay: CellTiter-Glo (CTG) GR50, T1-T670I; details: Homo sapiens
# SK-LMS-1 = assay: CellTiter-Glo (CTG) GR50, SK-LMS-1 control cell line; details: for CTG GR50 SK-LMS-1, single determinations: raw data of Supp. Tab. 2, independent experiments, unit from Supp. Tab. 2
# T1-V654A = assay: CellTiter-Glo (CTG) GR50, T1-V654A; details: Homo sapiens
# ZR-75-1 = assay: CellTiter-Glo (CTG) EC50, ZR-75-1 breast cancer control cell line; type: cell-based, human
# Procedure: as §1
# KIT-D816H = KIT-D816H (Homo sapiens, UniProt P10721, D816H); assay: Activity-based HTRF KinEASE assay, KIT-D816H; type: biochemical
# KIT-D816H, sequence (P10721 26-976 D816H): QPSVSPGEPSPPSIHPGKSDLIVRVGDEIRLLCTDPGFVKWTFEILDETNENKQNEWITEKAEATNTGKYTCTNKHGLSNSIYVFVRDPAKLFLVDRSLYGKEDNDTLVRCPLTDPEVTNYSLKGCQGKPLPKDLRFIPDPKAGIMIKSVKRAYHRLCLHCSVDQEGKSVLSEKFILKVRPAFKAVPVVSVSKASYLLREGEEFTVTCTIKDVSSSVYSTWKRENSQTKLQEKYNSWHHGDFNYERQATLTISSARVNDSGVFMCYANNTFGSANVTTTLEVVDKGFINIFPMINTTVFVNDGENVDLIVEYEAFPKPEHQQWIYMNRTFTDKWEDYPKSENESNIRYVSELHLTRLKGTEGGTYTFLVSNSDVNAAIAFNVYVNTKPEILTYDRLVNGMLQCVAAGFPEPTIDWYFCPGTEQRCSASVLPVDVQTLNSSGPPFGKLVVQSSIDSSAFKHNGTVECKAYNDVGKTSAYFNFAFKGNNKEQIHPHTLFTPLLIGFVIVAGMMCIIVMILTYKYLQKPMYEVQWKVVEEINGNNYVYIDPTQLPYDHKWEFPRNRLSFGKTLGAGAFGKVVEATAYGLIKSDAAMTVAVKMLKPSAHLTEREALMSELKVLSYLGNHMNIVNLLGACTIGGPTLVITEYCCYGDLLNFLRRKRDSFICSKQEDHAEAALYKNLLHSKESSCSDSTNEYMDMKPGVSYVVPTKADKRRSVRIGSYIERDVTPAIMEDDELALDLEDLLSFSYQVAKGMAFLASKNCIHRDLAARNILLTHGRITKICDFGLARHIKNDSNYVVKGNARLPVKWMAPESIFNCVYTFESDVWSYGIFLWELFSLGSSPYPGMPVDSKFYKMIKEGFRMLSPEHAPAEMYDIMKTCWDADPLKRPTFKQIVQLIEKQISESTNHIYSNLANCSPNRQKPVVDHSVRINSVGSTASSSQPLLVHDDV
# PDGFRA-D842V = biological target: T1, PDGFRA-D842V (Homo sapiens, UniProt P16234, D842V); assay: Activity-based HTRF KinEASE assay, PDGFRA-D842V; type: biochemical
# T1 construct: purchased Invitrogen PV4203 (lot #2343231B)
# T1 sequence (P16234 24-1089 D842V): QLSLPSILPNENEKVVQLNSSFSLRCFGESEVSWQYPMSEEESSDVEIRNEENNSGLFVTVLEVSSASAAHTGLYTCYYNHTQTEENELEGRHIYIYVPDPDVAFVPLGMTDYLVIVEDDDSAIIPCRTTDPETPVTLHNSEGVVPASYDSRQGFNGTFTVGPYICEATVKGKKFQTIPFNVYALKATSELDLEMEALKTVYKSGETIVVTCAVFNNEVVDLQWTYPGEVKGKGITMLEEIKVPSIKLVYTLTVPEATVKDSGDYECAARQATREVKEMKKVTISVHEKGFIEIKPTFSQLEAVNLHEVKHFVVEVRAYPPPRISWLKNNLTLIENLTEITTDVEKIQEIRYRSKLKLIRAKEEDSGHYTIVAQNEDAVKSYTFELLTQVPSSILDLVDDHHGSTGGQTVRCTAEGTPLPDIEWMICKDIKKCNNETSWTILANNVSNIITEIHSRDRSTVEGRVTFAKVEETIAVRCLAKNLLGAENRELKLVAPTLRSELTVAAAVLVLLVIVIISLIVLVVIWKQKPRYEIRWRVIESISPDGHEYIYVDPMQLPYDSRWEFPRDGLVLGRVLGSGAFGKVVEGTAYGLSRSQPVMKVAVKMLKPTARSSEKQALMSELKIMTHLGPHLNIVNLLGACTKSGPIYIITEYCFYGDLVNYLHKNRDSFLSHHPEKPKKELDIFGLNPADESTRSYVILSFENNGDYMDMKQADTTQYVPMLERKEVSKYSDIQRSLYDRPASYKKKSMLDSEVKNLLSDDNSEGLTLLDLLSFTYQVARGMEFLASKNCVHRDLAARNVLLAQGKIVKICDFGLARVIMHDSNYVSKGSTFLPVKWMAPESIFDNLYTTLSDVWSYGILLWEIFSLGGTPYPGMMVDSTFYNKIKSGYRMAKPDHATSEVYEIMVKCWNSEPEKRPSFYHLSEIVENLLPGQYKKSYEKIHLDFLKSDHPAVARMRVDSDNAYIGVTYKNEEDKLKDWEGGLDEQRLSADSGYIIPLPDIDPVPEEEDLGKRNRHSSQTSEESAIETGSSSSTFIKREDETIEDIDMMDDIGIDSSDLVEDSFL
# GIST-48B = assay: CellTiter-Glo (CTG) GR50, GIST-48B control cell line (off-target toxicity); details: ratio of GR50 values; for GIST-48B/D842V: source data sheet
# [2] = Homo sapiens, MDA-MB-175-VII, read-out: CTG EC50 MDA-MB-175VII, mean ± s.d., n = 3, control cell line
# [3] = Homo sapiens, MDA-MB-175-VII, read-out: CTG EC50 MDA-MB-175VII, single determinations, raw data of Supp. Tab. 2, independent experiments, unit from Supp. Tab. 2
# [4] = GISTT1, read-out: KIT CTG GR50 GIST-T1, mean ± s.d., n ≥ 3, GR50 half-maximal growth inhibition rate
# [5] = read-out: CTG GR50 T1-a-5258, single determinations, raw data of Supp. Tab. 1, independent experiments, unit from Supp. Tab. 1
# [6] = read-out: PDGFRA CTG GR50 T1-a-5258, mean ± s.d., n ≥ 3, triple mutant D842V, G652E, V658A
# [7] = read-out: CTG GR50 T1-T670I, single determinations, raw data of Supp. Tab. 1, independent experiments, unit from Supp. Tab. 1
# [8] = read-out: KIT CTG GR50 T1-T670I, mean ± s.d., n ≥ 3
# [9] = read-out: CTG GR50 T1-V654A, single determinations, raw data of Supp. Tab. 1, independent experiments, unit from Supp. Tab. 1
# [10] = read-out: KIT CTG GR50 T1-V654A, mean ± s.d., n ≥ 3 (* n = 2 for ava)
# [11] = Homo sapiens, ZR-75-1, mean ± s.d., n = 3, control cell line, read-out: CTG EC50 ZR-75-1
# [12] = Homo sapiens, ZR-75-1, raw data of Supp. Tab. 2, independent experiments, unit from Supp. Tab. 2, read-out: CTG EC50 ZR-75-1, single determinations
# [13] = mean ± s.d., n ≥ 3, ATP at KM (12 µM), read-out: HTRF IC50 KIT-D816H
# [14] = raw data of Table 1, independent experiments, unit from Table 1, read-out: HTRF IC50 KIT-D816H, single determinations
# [15] = mean ± s.d., n ≥ 3, ATP at KM (14 µM), read-out: HTRF IC50 PDGFRA-D842V
# [16] = raw data of Table 1, independent experiments 1-3, unit from Table 1, read-out: HTRF IC50 PDGFRA-D842V, single determinations
# [17] = GISTT1, read-out: CTG GR50 GIST-T1, single determinations, raw data of Table 1, independent experiments, unit from Table 1
Structure (SMILES),EC50 (MDA-MB-175VII; [2]) [µM],EC50 (MDA-MB-175VII; [3]) [µM],GI50 (GIST-T1; [4]) [µM],GI50 (T1-a-5258; [5]) [µM],GI50 (T1-a-5258; [6]) [µM],GI50 (T1-T670I; [7]) [µM],GI50 (T1-T670I; [8]) [µM],GI50 (T1-V654A; [9]) [µM],GI50 (T1-V654A; [10]) [µM],EC50 (ZR-75-1; [11]) [µM],EC50 (ZR-75-1; [12]) [µM],IC50 (KIT-D816H; [13]) [µM],IC50 (KIT-D816H; [14]),IC50 (PDGFRA-D842V; [15]) [µM],IC50 (PDGFRA-D842V; [16]),ratio GIST-48B/ T1-a-D842V (GIST-48B),GIST-48B/D842V (GIST-48B),GI50 (GIST-T1; [17]) [µM],"CTG GR50 SK-LMS-1, single determinations (SK-LMS-1) [µM]",also measured
Cn1cc(-c2cc3c(N4CCN(c5ncc(C(C)(N)c6ccc(F)cc6)cn5)CC4)ncnn3c2)cn1 (centres unmarked) [1 (avapritinib)],,,,,,,,,,,,,,,,,,,,"recovery at 2 h, 10 µM (MDR1; MDCK-MDR1, Recovery A->B): 87.6%; recovery at 2 h, 10 µM (MDR1; MDCK-MDR1, Recovery B->A): 150%; Papp A→B at 2 h, 10 µM [1]: 12.5 ×10⁻⁶ cm/s"
"Cn1cc(-c2cc3c(Cl)ncnn3c2)cn1 [Compound 2, 4-chloro-6-(1-methyl-1H-pyrazol-4-yl)pyrrolo[2,1-f][1,2,4]triazine]",9.19,10,6.73 ± 2.07,1.38,1.34 ± 0.07,3.55,2.87 ± 0.51,6.09,7.56 ± 0.991,6.48,7.51,9.3 ± 1.21,7.91 µM and 10 µM (2×),7.34,4.47 µM and 9.3 µM and 8.26 µM,3,3,,,"EC50 (MDA-MB-175VII; read-out: CTG EC50 MDA-MB-175VII, single determinations, raw data of Supp. Tab. 2, independent experiments, unit from Supp. Tab. 2): 7.57 µM; CTG GR50 SK-LMS-1 (SK-LMS-1; mean ± s.d., n = 3, control cell line): 7.713 ± 3.929 µM and 7.713 µM; EC50 (ZR-75-1; raw data of Supp. Tab. 2, independent experiments, unit from Supp. Tab. 2, read-out: CTG EC50 ZR-75-1, single determinations): 7.14 µM and 4.8 µM"
Cn1cc(-c2cc3c(N4CCNCC4)ncnn3c2)cn1 [Compound 3],≥ 10,≥ 10,≥ 10,,,,,,,≥ 10,≥ 10,1.54 ± 0.852,1.4 µM and 0.766 µM and 2.45 µM,5.59 ± 2.56,2.5 µM and 8.76 µM and 5.5 µM,1,1,≥ 10,≥10,
Cn1cc(-c2cc3c(N4CCN(c5ncccn5)CC4)ncnn3c2)cn1 [Compound 4],≥ 10,≥ 10,5.27 ± 0.509,≥ 10,≥ 10,≥ 10,≥ 10,≥ 10,≥ 10,≥ 10,≥ 10,0.076 ± 0.045,0.0275 µM and 0.0821 µM and 0.118 µM,0.035 ± 0.013,0.0496 µM and 0.0362 µM and 0.0185 µM,5,5.3,5.8,≥10,fold increase in potency with respect to PDGFRA-D842V (PDGFRA-D842V; 4 (pyrimidine added) compared with 3): 160 fold
Cn1cc(-c2cc3c(N4CCN(c5ncc(Cc6ccccc6)cn5)CC4)ncnn3c2)cn1 [Compound 5],≥ 10,≥ 10,1.48 ± 1.2,6.6,8.26 ± 1.7,≥ 10,≥ 10,≥ 10,≥ 10,≥ 10,≥ 10,,,,,,,,≥10,
